One data set concerns mice (C57BL6 male WT). The experiment in a line: Mice breathing air or electrically generated 50 ppm NO in air for 28 days. Format: in vivo. The conditions noted are these: 50 ppm NO in air. An excerpt: A second chamber 802 was supplied with 50 ppm of NO gas in air, generated by a spark plug generator using platinum-iridium electrodes and subsequently scavenged using 75 g Ca(OH). A plurality of mice (C57BL6 male WT) breathed the NO laden air for the same 28 day period. During the 28 day test, humidity, CO2, O2, NO, and NO2 were monitored intermittently.
Throughout the 28 day test, the mice were weighed in weekly intervals to track a change in the body weight of the mice throughout the 28 day test. […] Once the 28 day test was complete, lung specimens from the mice were analyzed using a high resolution magnetic sector field inductively coupled mass spectrometer (Thermo Fisher, Bremen, Germany).

In data set [1] the test system is awake sheep with acute pulmonary hypertension, due to U46619 infusion. The experiment in a line: Inhaled electrically generated NO in awake sheep with acute pulmonary hypertension due to U46619 infusion. The format is in vivo. The text has this:
Animal studies were approved by the Institutional Animal Care and Use Committee of Massachusetts General Hospital (Boston, Mass.). The NO generator 102 of the NO generation system 100 was coupled to a tracheostomy tube in a spontaneously breathing awake 35 kg sheep.
To induce pulmonary hypertension, a potent pulmonary vasoconstrictor U46619 (Cayman Chemical, Ann Arbor, Mich.), the analog of the endoperoxide prostaglandin H2, was infused intravenously to increase pulmonary arterial pressure (PAP) to 30 mmHg. The pulmonary arterial pressure and PAP was continuously monitored using a Gould 6600 amplifier system (Gould Electronics, Inc., Eastlake, Ohio).
In turn, the electric plasma discharge of the electrodes supplied NO gas to the spontaneously breathing awake sheep during those 0.8 seconds.
Turning to FIGS. 11 and 12, the above-described operation of the NO system 200 (i.e., triggering the NO generator 102 for approximately 0.8 second during early inspiration, for example, 20 milliseconds after commencement of inspiration) was implemented during a NO exposure time 700. Prior to and following the NO exposure time 700, a baseline was generated. The NO generator 102 was configured to output approximately 20 ppm of NO for three different runs (FIG. 11) and was configured to output 5 ppm of NO for another run (FIG. 12).
In addition to PAP, the arterial oxygen saturation was also measured as a function of time in the awake sheep. […] Lastly, the relative arterial oxygen saturation was calculated as a function of time for all four periods of NO inhalation.

We go through one molecule from patent US11617850B2, “Delivery systems and methods for electric plasma synthesis of nitric oxide” (The General Hospital Corporation, priority 2016, dated 2023).

On to `[N]=O` [NO, nitric oxide], for which the “lung histology (H&E staining of larynx, trachea, main bronchus, lung tissues)” value with mice (C57BL6 male WT) is on record as “no evidence of lung inflammation or pathology”. Further, the “iridium and platinum in lung specimens versus control mice (ICP mass spectrometry)” value in the data set with mice (C57BL6 male WT) (platinum-iridium electrodes, Ca(OH) scavenger) is “no detectable difference”. Also, the “body weight gain versus mice breathing air” value in the data set with mice (C57BL6 male WT) (weighed weekly) was “did not differ”. The “arterial oxygen saturation (SaO2) during the NO exposure time” value in data set [1] (5 ppm NO inhaled) is “generally constant”; in data set [1] (20 ppm NO inhaled), “increases”. The “effect on pulmonary artery pressure (PAP) during the NO exposure time” value in data set [1] (5 ppm NO inhaled, one run) is “does not show a measurable effect”. Further, the “improvement of relative arterial oxygen saturation during the NO exposure time” value in data set [1] (20 ppm NO inhaled, three trials) is “approximately 10%”.
